Laboratory results as given in PMC6453136 (Cellular signalling, 2018).
pEC50: −log10 of the molar value.

Assays:
[1] = target: T1, cAR1 (Dictyostelium discoideum, UniProt P13773); test: cell-based
T1 sequence (P13773 1-392): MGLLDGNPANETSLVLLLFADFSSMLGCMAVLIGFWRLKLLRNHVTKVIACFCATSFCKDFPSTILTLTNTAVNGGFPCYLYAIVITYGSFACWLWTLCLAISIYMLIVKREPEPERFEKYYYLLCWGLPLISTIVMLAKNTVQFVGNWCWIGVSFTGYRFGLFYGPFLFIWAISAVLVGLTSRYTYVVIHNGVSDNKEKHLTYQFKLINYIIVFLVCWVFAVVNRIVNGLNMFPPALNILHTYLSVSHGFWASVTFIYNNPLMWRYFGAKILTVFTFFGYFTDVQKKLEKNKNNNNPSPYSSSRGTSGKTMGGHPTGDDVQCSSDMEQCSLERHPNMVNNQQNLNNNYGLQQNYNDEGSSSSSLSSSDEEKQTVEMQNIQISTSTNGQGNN

[2] = test system: 5.5 h-differentiated wild-type cells; test: DIC and fluorescence confocal imaging of drug-treated cells; type: cell-based, Dictyostelium; settings: 5 μM LatA or 50 μM Benomyl for 15 min; Lifeact-GFP / tubulin-GFP reporters
[3] = test system: cAMP-induced Gα2βγ subunit dissociation; test: BRET^2 assay after drug pretreatment; type: cell-based, Dictyostelium; settings: for effect on interaction of Gα2 with βγ in resting cells (basal BRET^2 signal): 5 μM LatA or 50 μM Benomyl for 15 min
[4] = target: T1, cAR1
[5] = test system: cAMP binding sites; settings: 10 mM caffeine, whole cells; cited from earlier work

Work on `Nc1ncnc2c1ncn2[C@H]1C[C@H](O)[C@@H](COP(=O)(O)O)O1` [2’-dcAMP, 2’-deoxyadenosine-5’-monophosphate] yielded a pEC50 [1] of roughly 7.77.

For `CCCCNC(=O)n1c(NC(=O)OC)nc2ccccc21` [Benomyl], the “effect on cell morphology” value [2] was “loss of morphological cell polarity” and the “effect on interaction of Gα2 with βγ in resting cells (basal BRET^2 signal)” value [3] was “did not affect”.

In the case of `C/C1=C/C(=O)O[C@@H]2C[C@@H](CC[C@H](C)/C=C\C=C\CC1)O[C@@](O)([C@@H]1CSC(=O)N1)C2` [LatA, Latrunculin A], the “effect on cell morphology” value [2] was “loss of morphological cell polarity” and the “effect on interaction of Gα2 with βγ in resting cells (basal BRET^2 signal)” value [3] was “did not affect”.

In the case of `Nc1ncnc2c1ncn2[C@@H]1O[C@@H]2COP(=O)(O)O[C@H]2[C@H]1O` [cAMP, cyclic adenosine monophosphate], the “time to steady state of BRET^2 loss after stimulation” value ([4]; 10 μM cAMP) was “approximately 20 s”, the “decrease in total BRET^2 signal” value ([4]; 10 μM cAMP, Gα2GFP^2/Rluc2Gβ/gα2^− cells) was 30–40 and the “total BRET^2 signal after stimulation” value ([4]; 10 μM cAMP, Gα2GFP^2/Rluc2Gβ/gα2^− cells, 63 mBU before stimulation) was 36 mBU. The “G protein subunit dissociation in cells lacking cAR1” value ([4]; 10 μM cAMP, carA^− and carA^−carC^− cells, undifferentiated and 5.5 h-differentiated) was “fails to induce considerable G protein subunit dissociation”, the “cAMP concentration inducing the full G protein dissociation response” value ([4]; Gα2GFP^2/Rluc2Gβ/gα2^− cells) was 500 nM and the “G protein subunit dissociation in cells lacking only cAR3 (extent and potency)” value ([4]; carC^− cells) was “comparable to that in wild-type cells”.

For `Cn1c(=O)c2c(ncn2C)n(C)c1=O` [caffeine], the “effect on cAMP binding sites” value [5] is listed as “conversion of most binding sites to the low affinity conformation” and the “effect of caffeine on potency of cAMP-induced Gα2βγ subunit dissociation” value ([3]; 5 mM caffeine, in parallel to untreated cells) is listed as “significantly increased potency”.
